Test [1] has as its target T1, recombinant alpha-glucosidase I (human full-length glucosidase I, Glu 1) (Homo sapiens, UniProt Q13724).
T1 construct: 6-His (C); made in house; host or cells: HEK-293T cells transduced with BacMam virus (virus raised in Sf9)
T1 sequence (Q13724 1-837): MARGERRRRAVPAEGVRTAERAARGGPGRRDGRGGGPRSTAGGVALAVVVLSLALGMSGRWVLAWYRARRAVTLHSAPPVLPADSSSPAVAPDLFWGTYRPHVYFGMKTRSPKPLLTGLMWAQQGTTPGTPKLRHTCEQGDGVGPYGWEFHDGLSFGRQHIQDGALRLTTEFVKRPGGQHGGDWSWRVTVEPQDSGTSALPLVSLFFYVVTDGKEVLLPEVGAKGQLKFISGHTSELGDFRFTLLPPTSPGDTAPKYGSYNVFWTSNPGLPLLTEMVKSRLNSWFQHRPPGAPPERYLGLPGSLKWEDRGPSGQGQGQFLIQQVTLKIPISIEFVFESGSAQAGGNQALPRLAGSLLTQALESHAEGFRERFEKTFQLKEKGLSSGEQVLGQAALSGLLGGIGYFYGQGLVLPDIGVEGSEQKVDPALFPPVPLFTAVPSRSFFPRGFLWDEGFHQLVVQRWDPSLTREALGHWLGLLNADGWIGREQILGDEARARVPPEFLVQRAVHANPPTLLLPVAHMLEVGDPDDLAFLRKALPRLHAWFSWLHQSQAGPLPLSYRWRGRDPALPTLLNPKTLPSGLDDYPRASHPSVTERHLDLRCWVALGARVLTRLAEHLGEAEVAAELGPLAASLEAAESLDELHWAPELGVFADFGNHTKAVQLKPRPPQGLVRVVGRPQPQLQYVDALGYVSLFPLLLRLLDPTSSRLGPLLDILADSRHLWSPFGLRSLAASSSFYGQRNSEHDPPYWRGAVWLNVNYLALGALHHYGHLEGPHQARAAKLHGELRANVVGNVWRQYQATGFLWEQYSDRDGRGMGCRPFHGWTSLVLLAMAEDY
Kind of test: Alpha-glucosidase I assay (Amplex Red glucose detection, synthetic trisaccharide substrate). The format is biochemical. The note with it: Glucosidase 1; read-out: Glu 1 IC50. The gist of the method:
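Compound dilution series incubated 60 min at 37° C with recombinant His-tagged human glucosidase I ([…]), after which trisaccharide substrate analog was added for 90 min at 37° C. Reaction quenched with 1.5M Tris pH 8; D-glucose detected by Amplex Red fluorescence, 560/590 nm. 4-PL curve fit of percent inhibition gave IC50.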

In test [2] the target is rat maltase (partially purified alpha-glucosidase from intestinal rat powder). Kind of test: Intestinal alpha-glucosidase assay, maltose substrate (Glucose GO Kit). In kind it is biochemical. The gist of the method:
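Glucose release is the read-out: compounds at multiple dilutions are first held with partially purified rat intestinal alpha-glucosidase for 60 min at 37 °C, after which maltose or sucrose substrate reacts for 30 min at 37 °C before a 5 min 90 °C stop. IC50 comes from a four-parameter logistic fit.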

`OC[C@@H]1[C@@H](O)[C@H](O)[C@@H](O)CN1Cc1cnc(CNc2cc(-c3ncccn3)cc(C3CC3)c2)cn1` [Compound 1329, (2R,3R,4R,5S)-1-{[5-({[3-cyclopropyl-5-(pyrimidin-2-yl)phenyl]amino}methyl)pyrazin-2-yl]methyl}-2-(hydroxymethyl)piperidine-3,4,5-triol]: the concentration for half-maximal inhibition (IC50) came out at 1.87 µM in test [1] and 0.548 µM in test [2].
The matching figures for `[N-]=[N+]=Nc1ccc(NCCn2cc(CCN3C[C@H](O)[C@@H](O)[C@H](O)[C@H]3CO)nn2)c([N+](=O)[O-])c1` [Compound 1272, (2R,3R,4R,5S)-1-[2-(1-{2-[(4-azido-2-nitrophenyl)amino]ethyl}-1H-1,2,3-triazol-4-yl)ethyl]-2-(hydroxymethyl)piperidine-3,4,5-triol]: 1.8 µM and 0.239 µM.
In the same order, the values of `[N-]=[N+]=Nc1ccc(N2CCN(CCN3C[C@H](O)[C@@H](O)[C@H](O)[C@H]3CO)CC2)c([N+](=O)[O-])c1` [Compound 1254, (2R,3R,4R,5S)-1-{2-[4-(4-azido-2-nitrophenyl)piperazin-1-yl]ethyl}-2-(hydroxymethyl)piperidine-3,4,5-triol] are 6.77 µM and 1.21 µM.
For `[N-]=[N+]=Nc1ccc(NCCOC(=O)NCCN2C[C@H](O)[C@@H](O)[C@H](O)[C@H]2CO)c([N+](=O)[O-])c1` [Compound 1268, 2-[(4-azido-2-nitrophenyl)amino]ethyl N-{2-[(2R,3R,4R,5S)-3,4,5-trihydroxy-2-(hydroxymethyl)piperidin-1-yl]ethyl}carbamate], the results for the IC50 in test [1] and in test [2] were 1.99 µM and 0.068 µM, respectively.
Regarding `[N-]=[N+]=Nc1ccc(NCCCCCCN2C[C@H](O)[C@@H](O)[C@H](O)[C@H]2CO)c(C(=O)O)c1` [Compound 1297, 5-azido-2-({6-[(2R,3R,4R,5S)-3,4,5-trihydroxy-2-(hydroxymethyl)piperidin-1-yl]hexyl}amino)benzoic acid], the IC50 in test [1] was 1.3 µM; in test [2] it was 0.169 µM.
The matching figures for `NC(=O)c1cc(-c2ncccn2)ccc1NCCCCCCN1C[C@H](O)[C@@H](O)[C@H](O)[C@H]1CO` [Compound 1266, 5-(pyrimidin-2-yl)-2-({6-[(2R,3R,4R,5S)-3,4,5-trihydroxy-2-(hydroxymethyl)piperidin-1-yl]hexyl}amino)benzamide]: 0.18 µM and 0.002 µM.
In the case of `Cc1cc(NCc2cccc(CN3C[C@H](O)[C@@H](O)[C@H](O)[C@H]3CO)c2)cc(-c2ccc[nH]2)c1` [Compound 1033, (2R,3R,4R,5S)-2-(hydroxymethyl)-1-{[3-({[3-methyl-5-(1H-pyrrol-2-yl)phenyl]amino}methyl)phenyl]methyl}piperidine-3,4,5-triol], the IC50 worked out at 0.009 µM in test [1] and 0.037 µM in test [2].
As for `O=[N+]([O-])c1cc(N2CC3CC2CO3)ccc1NCc1ccc(CN2C[C@@H](O)[C@H](O)[C@@H](O)[C@@H]2CO)cc1` (stereo in doubt) [Compound 1015, (2S,3S,4S,5R)-2-(hydroxymethyl)-1-[(4-{[(2-nitro-4-{2-oxa-5-azabicyclo[2.2.1]heptan-5-yl}phenyl)amino]methyl}phenyl)methyl]piperidine-3,4,5-triol], the IC50 in test [1] amounted to 0.009 µM; in test [2], 0.008 µM.
As to `Cc1cc(NCc2cccc(CN3C[C@H](O)[C@@H](O)[C@H](O)[C@H]3CO)n2)cc(-c2ncccn2)c1` [Compound 1322, (2R,3R,4R,5S)-2-(hydroxymethyl)-1-{[6-({[3-methyl-5-(pyrimidin-2-yl)phenyl]amino}methyl)pyridin-2-yl]methyl}piperidine-3,4,5-triol], the IC50 in test [1] stood at 3.12 µM; in test [2] it was 0.388 µM.
Turning to `OC[C@@H]1[C@@H](O)[C@H](O)[C@@H](O)CN1CCCCCCNc1cc(Cl)cc(-c2ncccn2)c1` [Compound 1212, (2R,3R,4R,5S)-1-(6-{[3-chloro-5-(pyrimidin-2-yl)phenyl]amino}hexyl)-2-(hydroxymethyl)piperidine-3,4,5-triol], the IC50 in test [1] stood at 0.105 µM; in test [2] it was 0.002 µM.

These data come from patent publication US20250197372A1 (priority 2020, published 2025).
